Assay results from the NIST ThermoML archive (doi:10.1021/je900091b).

Tests used:
[1] = Liquid
[2] = xn = mol fraction of the nth substance listed; settings: Liquid, x2 = 0

CCCCn1cc[n+](C)c1.F[P-](F)(F)(F)(F)F [1-butyl-3-methylimidazolium hexafluorophosphate]
[1]
Settings | mass density [kg/m3] | viscosity [mPa·s]
283.15 K | 1380.34 | 802.09
288.15 K | 1376.06 | 552.57
293.15 K | 1371.8 | 389.81
298.15 K | 1367.53 | 282.24
303.15 K | 1363.28 | 209.25
308.15 K | 1359.19 | 159.15
313.15 K | 1355.09 | 123.38
318.15 K | 1350.98 | 97.78
323.15 K | 1346.87 | 78.77
328.15 K | 1342.78 | 61.34
333.15 K | 1338.7 | 50.38
343.15 K | 1330.56 | 35.25
353.15 K | 1322.47 | 25.76

CCCCn1cc[n+](C)c1.F[P-](F)(F)(F)(F)F [1-butyl-3-methylimidazolium hexafluorophosphate] + C=C(C)C(=O)OC
[2]
Settings | mass density [kg/m3] | viscosity [mPa·s]
283.15 K | 1380.34 | 802.09
288.15 K | 1376.06 | 552.57
293.15 K | 1371.8 | 389.81
298.15 K | 1367.53 | 282.24
303.15 K | 1363.28 | 209.25
308.15 K | 1359.19 | 159.15
313.15 K | 1355.09 | 123.38
318.15 K | 1350.98 | 97.78
323.15 K | 1346.87 | 78.77
328.15 K | 1342.78 | 61.34
333.15 K | 1338.7 | 50.38
343.15 K | 1330.56 | 35.25
353.15 K | 1322.47 | 25.76

C=C(C)C(=O)OC [methyl methacrylate]
[1]
Settings | mass density [kg/m3] | viscosity [mPa·s]
283.15 K | 954.802 | 0.6808
288.15 K | 949.097 | 0.6337
293.15 K | 943.365 | 0.5899
298.15 K | 937.615 | 0.554
303.15 K | 931.837 | 0.5248
308.15 K | 926.032 | 0.4956
313.15 K | 920.185 | 0.4719
318.15 K | 914.317 | 0.4497
323.15 K | 908.405 | 0.4294
328.15 K | 902.468 | 0.41
333.15 K | 896.479 | 0.3938
343.15 K | 884.418 | 0.3636
353.15 K | 872.129 | 0.3398
